According to US11584763B2, “Chromenopyridine derivatives as phosphatidylinositol phosphate kinase inhibitors” (HIBERCELL, INC., priority 2017, dated 2023):

Assays:
PIP4K2B = target: T1, PIP4K2B (Homo sapiens, UniProt P78356); assay: Trans-FI P kinase assay PIP4K2B (PIP4KtypeIIB inhibition assay); type: biochemical; details: compounds listed under IC50 bin headings; 100 uM GTP; read-out: Trans-FI P kinase assays: PIP4K2B IC50
T1 construct: made in house; host or cells: E. coli
T1 sequence (P78356 1-416): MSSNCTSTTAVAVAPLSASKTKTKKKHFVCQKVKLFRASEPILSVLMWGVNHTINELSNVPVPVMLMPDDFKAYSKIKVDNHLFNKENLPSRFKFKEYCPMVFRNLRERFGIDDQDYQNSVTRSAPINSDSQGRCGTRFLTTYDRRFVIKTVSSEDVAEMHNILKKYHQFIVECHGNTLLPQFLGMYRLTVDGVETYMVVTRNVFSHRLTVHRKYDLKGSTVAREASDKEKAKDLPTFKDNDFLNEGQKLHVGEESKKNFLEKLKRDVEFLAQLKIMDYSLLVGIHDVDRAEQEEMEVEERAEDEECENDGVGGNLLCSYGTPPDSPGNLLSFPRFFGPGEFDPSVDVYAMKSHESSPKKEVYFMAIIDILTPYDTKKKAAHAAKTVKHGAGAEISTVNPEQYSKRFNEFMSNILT
How it was run: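 Transcreener FI fluorescence read-out of GDP formed by E. coli-expressed GST-PIP4K2B (5 nM) using 100 uM GTP and 80 uM PI5P with DOPE carrier lipid, pH 7.3, 2 h reaction. Compounds (up to 4.8 uM) were preincubated with enzyme 1 h at 27 C; IC50 fitted from residual activity relative to no-inhibitor control.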

PIP4K 2A = target: T2, PIP4K 2A (Homo sapiens, UniProt P48426); assay: ADP-glo kinase assay PIP4K 2A; type: biochemical; design: 4 nM PIP4K2A (full length protein, SignalChem); purchased SignalChem; details: compounds listed under IC50 bin headings
T2 sequence (P48426 1-406): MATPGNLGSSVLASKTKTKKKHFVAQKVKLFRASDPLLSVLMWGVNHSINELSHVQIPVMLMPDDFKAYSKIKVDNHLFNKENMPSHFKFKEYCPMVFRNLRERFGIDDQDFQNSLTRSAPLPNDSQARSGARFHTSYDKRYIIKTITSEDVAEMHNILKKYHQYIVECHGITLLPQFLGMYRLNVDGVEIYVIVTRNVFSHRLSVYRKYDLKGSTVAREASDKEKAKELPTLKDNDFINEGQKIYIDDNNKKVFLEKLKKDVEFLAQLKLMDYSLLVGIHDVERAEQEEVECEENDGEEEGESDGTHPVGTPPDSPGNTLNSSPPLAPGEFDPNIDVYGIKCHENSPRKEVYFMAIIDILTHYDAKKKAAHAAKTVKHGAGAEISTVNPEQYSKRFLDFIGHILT
How it was run: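 Inhibition was calculated versus DMSO controls from ADP-Glo luminescence and fitted to IC50 over a 10-point, threefold series. Compound was first pre-incubated 15 min at room temperature with PIP4K2A (full-length; 4 nM in the enzyme/substrate mix) and PI(5)P diC8 (100 μM in that mix). The reaction then ran for 1 h after adding 60 μM ATP solution, in MOPS pH 7.2/MgCl2/Tween buffer.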

SMILES | IC50 (PIP4K2B) [nM] | IC50 (PIP4K 2A) [nM]
COc1ccc(C(=O)Nc2cncc(Nc3cc4c(cn3)-c3ccc(N5CCCC5=O)cc3OC4C)c2)cc1 (centres unmarked) [Example 122, 4-methoxy-N-(5-((5-methyl-8-(2-oxopyrrolidin-1-yl)-5H-chromeno[4,3-c]pyridin-3-yl)amino)pyridin-3-yl)benzamide] | 10 to 100 | 1 to 10
CC1Oc2cc(N3CCCC3=O)ccc2-c2cnc(Nc3cncc(NC(=O)CO)c3)cc21 (centres unmarked) [Example 101, 2-hydroxy-N-(5-((5-methyl-8-(2-oxopyrrolidin-1-yl)-5H-chromeno[4,3-c]pyridin-3-yl)amino)pyridin-3-yl)acetamide] | 10 to 100 | 1 to 10
CC1Oc2cc(N3CCCC3=O)ccc2-c2cnc(Nc3cncc(NC(=O)c4ccnnc4)c3)cc21 (centres unmarked) [Example 125, N-(5-((5-methyl-8-(2-oxopyrrolidin-1-yl)-5H-chromeno[4,3-c]pyridin-3-yl)amino)pyridin-3-yl)pyridazine-4-carboxamide] | 10 to 100 | 1 to 10
CC1Oc2cc(N3CCCC3=O)ccc2-c2cnc(Nc3cncc(NC(=O)C4CCNC4=O)c3)cc21 (centres unmarked) [Example 104, N-(5-((5-methyl-8-(2-oxopyrrolidin-1-yl)-5H-chromeno[4,3-c]pyridin-3-yl)amino)pyridin-3-yl)-2-oxopyrrolidine-3-carboxamide] | 10 to 100 | 1 to 10
O=C1NCCN1c1cncc(Nc2cc3c(cn2)-c2cc(F)c(N4CCCC4=O)cc2OC3)c1 [Example 161, 1-(5-((9-fluoro-8-(2-oxopyrrolidin-1-yl)-5H-chromeno[4,3-c]pyridin-3-yl)amino)pyridin-3-yl)imidazolidin-2-one] | 10 to 100 | 1 to 10
CC1Oc2cc(N3CCCC3=O)ccc2-c2cnc(Nc3cncc(NC(=O)c4ccccn4)c3)cc21 (centres unmarked) [Example 112, N-(5-((5-methyl-8-(2-oxopyrrolidin-1-yl)-5H-chromeno[4,3-c]pyridin-3-yl)amino)pyridin-3-yl)picolinamide] | 10 to 100 | 1 to 10
CC1Oc2cc(N3CCCC3=O)ccc2-c2cnc(Nc3cncc(NC(=O)Cc4ccccc4)c3)cc21 (centres unmarked) [Example 107, N-(5-((5-methyl-8-(2-oxopyrrolidin-1-yl)-5H-chromeno[4,3-c]pyridin-3-yl)amino)pyridin-3-yl)-2-phenylacetamide] | 10 to 100 | 1 to 10
CC1C[C@H]2COc3ncc(Nc4cc5c(cn4)-c4ccc(N6CCCC6=O)cc4OC5C)cc3N2C1=O (stereo partly drawn) [Example 155, (6aS)-8-methyl-2-((5-methyl-8-(2-oxopyrrolidin-1-yl)-5H-chromeno[4,3-c]pyridin-3-yl)amino)-6,6a,7,8-tetrahydro-9H-pyrido[2,3-b]pyrrolo[1,2-d][1,4]oxazin-9-one] | 1 to 10 | ≤ 1
CC1Oc2cc(N3CCCC3=O)ccc2-c2cnc(Nc3cncc(NC(=O)C(O)Cc4ccccc4)c3)cc21 (centres unmarked) [Example 134, 2-hydroxy-N-(5-((5-methyl-8-(2-oxopyrrolidin-1-yl)-5H-chromeno[4,3-c]pyridin-3-yl)amino)pyridin-3-yl)-3-phenylpropanamide] | 10 to 100 | 1 to 10
CC1Oc2cc(N3CCCC3=O)ccc2-c2cnc(Nc3cncc(NC(=O)c4cccc5nccn45)c3)cc21 (centres unmarked) [Example 146, N-(5-((5-methyl-8-(2-oxopyrrolidin-1-yl)-5H-chromeno[4,3-c]pyridin-3-yl)amino)pyridin-3-yl)imidazo[1,2-a]pyridine-5-carboxamide] | 1 to 10 | ≤ 1
CC1Oc2cc(N3CCCC3=O)ccc2-c2cnc(Nc3cncc(NC(=O)c4ccc5c(c4)OCO5)c3)cc21 (centres unmarked) [Example 136, N-(5-((5-methyl-8-(2-oxopyrrolidin-1-yl)-5H-chromeno[4,3-c]pyridin-3-yl)amino)pyridin-3-yl)benzo[d][1,3]dioxole-5-carboxamide] | 10 to 100 | 1 to 10

More lines, now with the values ahead:

IC50 (PIP4K2B) [nM] | IC50 (PIP4K 2A) [nM] | SMILES
10 to 100 | 1 to 10 | CN(C)C/C=C/C(=O)Nc1cccc(CCC(=O)Nc2cncc(Nc3cc4c(cn3)-c3ccc(N5CCCC5=O)cc3OC4(C)C)c2)c1 [Example 199, (E)-N-(3-(3-((5-((5,5-dimethyl-8-(2-oxopyrrolidin-1-yl)-5H-chromeno[4,3-c]pyridin-3-yl)amino)pyridin-3-yl)amino)-3-oxopropyl)phenyl)-4-(dimethylamino)but-2-enamide]
1 to 10 | ≤ 1 | CC1Oc2cc(N3CCCC3=O)ccc2-c2cnc(Nc3cncc(N4CCN(Cc5cccc(NC(=O)CNC(=O)/C=C/CN(C)C)c5)C4=O)c3)cc21 (centres unmarked) [Example 178, (E)-4-(dimethylamino)-N-(2-((3-((3-(5-((5-methyl-8-(2-oxopyrrolidin-1-yl)-5H-chromeno[4,3-c]pyridin-3-yl)amino)pyridin-3-yl)-2-oxoimidazolidin-1-yl)methyl)phenyl)amino)-2-oxoethyl)but-2-enamide]
10 to 100 | 1 to 10 | COCCC(=O)N1CCN(c2cncc(Nc3cc4c(cn3)-c3cc(F)c(N5CCCC5=O)cc3OC4C)c2)CC1 (centres unmarked) [Example 172, 1-(9-fluoro-3-((5-(4-(3-methoxypropanoyl)piperazin-1-yl)pyridin-3-yl)amino)-5-methyl-5H-chromeno[4,3-c]pyridin-8-yl)pyrrolidin-2-one]
100 to 1000 | 100 to 1000 | COc1ncc(Nc2cc3c(cn2)-c2ccc(N4CCCC4=O)cc2OC3(C)C)cc1NC(C)=O [Example 191, N-(5-((5,5-dimethyl-8-(2-oxopyrrolidin-1-yl)-5H-chromeno[4,3-c]pyridin-3-yl)amino)-2-methoxypyridin-3-yl)acetamide]
10 to 100 | 1 to 10 | O=C1CCCN1c1ccc2c(c1)OCc1cc(Nc3cnc4c(c3)OCCO4)ncc1-2 [Example 163, 1-(3-((2,3-dihydro-[1,4]dioxino[2,3-b]pyridin-7-yl)amino)-5H-chromeno[4,3-c]pyridin-8-yl)pyrrolidin-2-one]
1 to 10 | ≤ 1 | CC1(C)Oc2cc(N3CCCC3=O)c(F)cc2-c2cnc(Nc3cnc4c(c3)N3C(=O)CC[C@H]3CO4)nc21 [Example 190, (S)-2-((9-fluoro-5,5-dimethyl-8-(2-oxopyrrolidin-1-yl)-5H-chromeno[3,4-d]pyrimidin-3-yl)amino)-6,6a,7,8-tetrahydro-9H-pyrido[2,3-b]pyrrolo[1,2-d][1,4]oxazin-9-one]
10 to 100 | 1 to 10 | CC1(C)Oc2cc(N3CCCC3=O)ccc2-c2cnc(Nc3cncc(N4CCNC4=O)c3)cc21 [Example 162, 1-(5-((5,5-dimethyl-8-(2-oxopyrrolidin-1-yl)-5H-chromeno[4,3-c]pyridin-3-yl)amino)pyridin-3-yl)imidazolidin-2-one]
10 to 100 | 10 to 100 | O=C1CCCN1c1cc2c(cc1F)-c1cnc(Nc3cnc4c(c3)OCCO4)cc1CO2 [Example 165, 1-(3-((2,3-dihydro-[1,4]dioxino[2,3-b]pyridin-7-yl)amino)-9-fluoro-5H-chromeno[4,3-c]pyridin-8-yl)pyrrolidin-2-one]
10 to 100 | 10 to 100 | COCCC(=O)N1CCN(c2cncc(Nc3cc4c(cn3)-c3cc(F)c(N5CCCC5=O)cc3OC4)c2)CC1 [Example 171, 1-(9-fluoro-3-((5-(4-(3-methoxypropanoyl)piperazin-1-yl)pyridin-3-yl)amino)-5H-chromeno[4,3-c]pyridin-8-yl)pyrrolidin-2-one]
10 to 100 | 10 to 100 | COCCC(=O)N1CCN(c2cncc(Nc3cc4c(cn3)-c3ccc(N5CCCC5=O)cc3OC4)c2)CC1 [Example 168, 1-(3-((5-(4-(3-methoxypropanoyl)piperazin-1-yl)pyridin-3-yl)amino)-5H-chromeno[4,3-c]pyridin-8-yl)pyrrolidin-2-one]
10 to 100 | 1 to 10 | CC1Oc2cc(N3CCCC3=O)c(F)cc2-c2cnc(Nc3cnc4c(c3)N3C(=O)[C@](C)(O)C[C@H]3CO4)cc21 (stereo partly drawn) [Example 204, (6aS,8R)-2-((9-fluoro-5-methyl-8-(2-oxopyrrolidin-1-yl)-5H-chromeno[4,3-c]pyridin-3-yl)amino)-8-hydroxy-8-methyl-6,6a,7,8-tetrahydro-9H-pyrido[2,3-b]pyrrolo[1,2-d][1,4]oxazin-9-one]
